Structures are written as SMILES.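 Test compounds were applied to cells in 96-well plates for 48 hours at 5 doses. The concentration for 50% growth inhibition is given as GI50.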 The source made the active and inactive calls. Cut-off read from the data, not from the text of the source: active = GI50 up to about 1.1 µM and inactive = higher.

Data on 5 compounds can be found in ChEMBL document CHEMBL1201862, “PubChem BioAssay data set” (2004).

Some test systems named below: CCRF-CEM; MDA-N; RXF 393; SR; K562; SF-268; NCI-H460; HOP-92; SK-MEL-2; HT-29; DU-145; EKVX; OVCAR-4; HCT-116; COLO 205; NCI-H226; UO-31; UACC-257; ACHN; HCT-15.
Assay in all cases: inhibition of tumour cell growth, NCI panel, 48 h

As to `CCN1C/C(=C\c2cc(OC)c(OC)c(OC)c2)C2=NN(c3ccccc3)C(c3cc(OC)c(OC)c(OC)c3)C2C1` (stereo not given), the GI50 with CCRF-CEM was 1.81 µM (inactive); with MDA-N, 2.41 µM (inactive); with RXF 393, 0.75 µM (active); in the assay with SR it was 2.03 µM (inactive); in the assay on K562, 1.65 µM (inactive); in the assay on SF-268, 0.365 µM (active). The GI50 in the assay with NCI-H460 is 1.06 µM (active); with HOP-92 it was 2.92 µM (inactive); in the assay with SK-MEL-2 it was 6.84 µM (inactive); with HT-29 it was 2.07 µM (inactive); with DU-145 it was 2.99 µM (inactive); with EKVX, 2.09 µM (inactive). Also, the GI50 is 1.91 µM (inactive) in the assay with OVCAR-4; 1.89 µM (inactive) in the assay on HCT-116; 2.36 µM (inactive) in the assay with COLO 205; 4.68 µM (inactive) with NCI-H226; 2.08 µM (inactive) in the assay on UO-31; 3.35 µM (inactive) in the assay on UACC-257. Also, the GI50 in the assay with ACHN is 9.33 µM (inactive); with HCT-15 it was 5.58 µM.
`Cc1nn(C(=O)c2ccncc2)c2c1C(c1ccc([N+](=O)[O-])cc1)SC(=N)N2` (stereo not given): the GI50 in the assay with CCRF-CEM, with MDA-N, with RXF 393, in the assay on SR, with K562 and in the assay on SF-268 was > 100 µM (inactive) throughout. For the same compound, the GI50 in the assay on NCI-H460, in the assay with HOP-92, in the assay on SK-MEL-2, in the assay on HT-29, with DU-145 and in the assay with EKVX was > 100 µM (inactive) each time. Besides, the GI50 in the assay with OVCAR-4, in the assay on HCT-116, with COLO 205, in the assay on NCI-H226, with UO-31 and in the assay with UACC-257 was > 100 µM (inactive) in each case. The GI50 with ACHN was > 100 µM (inactive); with HCT-15 it was greater than 100 µM.
Regarding `O=C(CC(Cc1ccccc1)c1ccc(Oc2ccccc2)cc1)Nc1cccc(Cl)c1` (stereo not given), the GI50 in the assay with CCRF-CEM was 3.49 µM (inactive); with MDA-N, 4.47 µM (inactive); with RXF 393, 5.41 µM (inactive); in the assay on SR, 4.94 µM (inactive); in the assay on K562 it was 3.34 µM (inactive); with SF-268 it was 19.2 µM (inactive). Besides, the GI50 in the assay with NCI-H460 was 3.83 µM (inactive); in the assay with HOP-92, 1.9 µM (inactive); in the assay with SK-MEL-2 it was 3.56 µM (inactive); with HT-29, 5.79 µM (inactive); in the assay with DU-145 it was 5.43 µM (inactive); in the assay with EKVX, 4.4 µM (inactive). Besides, the GI50 in the assay on OVCAR-4 was 6.03 µM (inactive); with HCT-116, 3.6 µM (inactive); in the assay on COLO 205, 6 µM (inactive); in the assay on NCI-H226 it was 7.48 µM (inactive); in the assay on UO-31, 4.24 µM (inactive); in the assay on UACC-257, 11 µM (inactive). Also, the GI50 is 3.65 µM (inactive) in the assay on ACHN and 3.64 µM in the assay with HCT-15.
`CC(=O)Nc1ccc(/N=C2\C(c3ccccc3)=C(SC3=C(c4ccccc4)/C(=N\c4ccc(NC(C)=O)cc4)c4ccccc43)c3ccccc32)cc1`: the GI50 is 24.7 µM (inactive) with CCRF-CEM; 32.8 µM (inactive) with MDA-N; 21.6 µM (inactive) in the assay on RXF 393; 23.8 µM (inactive) with SR; 32.6 µM (inactive) in the assay with K562; 33.8 µM (inactive) in the assay on SF-268. The GI50 in the assay with NCI-H460 was 26.7 µM (inactive); in the assay with HOP-92 it was 27 µM (inactive); in the assay with SK-MEL-2, 39.5 µM (inactive); in the assay with HT-29, 36.7 µM (inactive); in the assay on DU-145, 37.8 µM (inactive); in the assay on EKVX, 34.5 µM (inactive). For the same compound, the GI50 is 29.6 µM (inactive) in the assay with OVCAR-4; 34.4 µM (inactive) in the assay on HCT-116; 32 µM (inactive) in the assay on COLO 205; 53.6 µM (inactive) in the assay on NCI-H226; 24.7 µM (inactive) with UO-31; 46 µM (inactive) in the assay on UACC-257. Further, the results for the GI50 with ACHN and in the assay on HCT-15 were 31.8 µM (inactive) and 44.5 µM, respectively.
Take `CCOC(=O)NC1=C(N2CC2)C(=O)C(NC(=O)OCC)=C(N2CC2)C1=O` [DIAZIQUONE]: the GI50 in the assay on CCRF-CEM was 1.37 µM (inactive); in the assay on MDA-N, 3.4 µM (inactive); with RXF 393, 4.68 µM (inactive); with SR it was 0.339 µM (active); with K562 it was 5.43 µM (inactive); in the assay with SF-268, 2.81 µM (inactive). Besides, the GI50 in the assay on NCI-H460 was 0.188 µM (active); with HOP-92 it was 5.51 µM (inactive); in the assay with SK-MEL-2, 5.96 µM (inactive); in the assay with HT-29 it was 7.73 µM (inactive); with DU-145, 1.9 µM (inactive); in the assay with EKVX it was 6.37 µM (inactive). The GI50 was 4.9 µM (inactive) with OVCAR-4; 3.53 µM (inactive) in the assay with HCT-116; 7.69 µM (inactive) with COLO 205; 4.23 µM (inactive) in the assay on NCI-H226; 5.56 µM (inactive) in the assay on UO-31; 4.65 µM (inactive) in the assay on UACC-257. The GI50 in the assay with ACHN is 0.82 µM (active); in the assay on HCT-15, 7.69 µM.
